± gives the expanded uncertainty stated by the source.
What was measured:
[1] = Crystal; DTA
[2] = Molar enthalpy of transition or fusion; conditions: Crystal; DSC

Row | Structure (SMILES) | Normal melting temperature [1] | Molar enthalpy of transition or fusion [2]
1 | Nc1ccccc1O [2-hydroxybenzenamine] | 175.57 ± 0.93 °C | 6.39 ± 1.91 kcal/mol
2 | C[C@]12CCC(=O)C=C1CC[C@@H]1[C@@H]2CC[C@@]2(C)[C@H]1CC[C@]2(C)O [17-methyltestosterone] | 164.19 ± 0.71 °C | 5.98 ± 1.79 kcal/mol

Reference: the NIST ThermoML archive (doi:10.1016/j.jct.2011.02.003)
